The target in assay [1] is T1, 5-hydroxytryptamine receptor 1A (Rattus norvegicus, UniProt P19327).
T1 sequence (P19327 whole entry): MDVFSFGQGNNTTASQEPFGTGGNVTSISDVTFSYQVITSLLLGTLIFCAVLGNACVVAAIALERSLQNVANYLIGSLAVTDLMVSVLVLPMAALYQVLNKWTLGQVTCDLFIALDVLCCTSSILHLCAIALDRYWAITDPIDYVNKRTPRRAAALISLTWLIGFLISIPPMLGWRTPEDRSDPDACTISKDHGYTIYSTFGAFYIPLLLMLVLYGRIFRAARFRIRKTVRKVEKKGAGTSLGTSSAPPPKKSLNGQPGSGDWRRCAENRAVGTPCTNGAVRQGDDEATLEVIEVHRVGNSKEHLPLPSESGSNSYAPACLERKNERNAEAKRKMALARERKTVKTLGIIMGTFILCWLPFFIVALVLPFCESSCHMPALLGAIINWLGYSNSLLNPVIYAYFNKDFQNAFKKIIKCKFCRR

The target of assay [2] is T2, Muscarinic acetylcholine receptor M2 (Rattus norvegicus, UniProt P10980).
T2 sequence (P10980 whole entry): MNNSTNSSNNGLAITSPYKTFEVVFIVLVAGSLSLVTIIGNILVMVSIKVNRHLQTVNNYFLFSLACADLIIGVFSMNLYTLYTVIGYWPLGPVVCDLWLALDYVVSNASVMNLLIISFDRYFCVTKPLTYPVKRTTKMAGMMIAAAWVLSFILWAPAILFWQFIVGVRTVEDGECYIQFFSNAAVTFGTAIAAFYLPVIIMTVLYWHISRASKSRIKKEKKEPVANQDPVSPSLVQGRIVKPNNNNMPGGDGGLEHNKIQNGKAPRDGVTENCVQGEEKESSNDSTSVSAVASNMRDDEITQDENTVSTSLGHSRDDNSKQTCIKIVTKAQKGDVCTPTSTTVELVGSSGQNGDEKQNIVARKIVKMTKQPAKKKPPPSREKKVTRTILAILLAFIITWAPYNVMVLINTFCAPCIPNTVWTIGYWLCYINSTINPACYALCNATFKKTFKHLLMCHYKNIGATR

The target of assay [3] is T3, Alpha-2A adrenergic receptor (Homo sapiens, UniProt P08913).
T3 sequence (P08913 whole entry): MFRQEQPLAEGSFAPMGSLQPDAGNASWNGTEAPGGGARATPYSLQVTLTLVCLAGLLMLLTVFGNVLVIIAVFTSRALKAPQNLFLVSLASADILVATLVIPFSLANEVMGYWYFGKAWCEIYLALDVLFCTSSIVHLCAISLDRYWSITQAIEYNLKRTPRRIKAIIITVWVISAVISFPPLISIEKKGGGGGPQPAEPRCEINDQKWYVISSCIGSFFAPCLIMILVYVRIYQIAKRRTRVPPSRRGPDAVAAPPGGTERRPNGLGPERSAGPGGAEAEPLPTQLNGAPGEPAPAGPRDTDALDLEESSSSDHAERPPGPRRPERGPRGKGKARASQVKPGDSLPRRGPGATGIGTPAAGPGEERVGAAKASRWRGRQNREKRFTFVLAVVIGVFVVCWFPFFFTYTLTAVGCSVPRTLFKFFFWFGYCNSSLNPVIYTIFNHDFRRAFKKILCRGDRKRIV

In assay [4] the target is Sodium-dependent serotonin transporter (Rattus norvegicus, UniProt P31652).
Sequence of Sodium-dependent serotonin transporter (P31652 whole entry): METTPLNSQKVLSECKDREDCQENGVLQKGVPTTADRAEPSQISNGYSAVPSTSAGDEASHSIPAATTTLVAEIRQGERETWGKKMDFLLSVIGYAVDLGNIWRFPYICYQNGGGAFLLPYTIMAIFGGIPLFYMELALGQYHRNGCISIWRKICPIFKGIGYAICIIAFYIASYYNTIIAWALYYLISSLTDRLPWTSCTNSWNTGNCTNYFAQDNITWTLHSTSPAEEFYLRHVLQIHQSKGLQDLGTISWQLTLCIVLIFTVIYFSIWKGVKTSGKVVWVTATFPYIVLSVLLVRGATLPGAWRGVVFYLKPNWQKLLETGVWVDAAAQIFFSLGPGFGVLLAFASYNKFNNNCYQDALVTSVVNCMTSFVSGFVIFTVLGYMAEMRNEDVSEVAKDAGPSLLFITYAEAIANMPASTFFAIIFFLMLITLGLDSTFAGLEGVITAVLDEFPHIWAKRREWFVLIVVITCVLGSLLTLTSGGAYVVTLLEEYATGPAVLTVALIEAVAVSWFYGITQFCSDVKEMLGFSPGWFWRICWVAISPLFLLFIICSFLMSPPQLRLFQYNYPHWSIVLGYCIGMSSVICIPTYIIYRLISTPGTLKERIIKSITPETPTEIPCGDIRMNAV

Take `CN(C)CCC=C1c2ccccc2CCc2ccccc21`: the inhibitory constant (Ki) – broadly, the dissociation constant of the complex between target and ligand, obtained from inhibition or displacement – came out at 129 nM in assay [1], 2.6 nM in assay [2] and 114 nM in assay [3].
Regarding `CCc1nn(CCCN2CCN(c3cccc(Cl)c3)CC2)c(=O)n1CCOc1ccccc1` [2-{3-[4-(3-chlorophenyl)piperazin-1-yl]propyl}-5-ethyl-4-(2-phenoxyethyl)-2,4-dihydro-3H-1,2,4-triazol-3-one], the inhibitory constant (Ki) in assay [1] is 52 nM; in assay [2], 4570 nM.
In assay [2], `O=c1n(CCCN2CCN(c3cccc(Cl)c3)CC2)nc2ccccn12` [2-{3-[4-(3-chlorophenyl)piperazin-1-yl]propyl}[1,2,4]triazolo[4,3-a]pyridin-3(2H)-one] yielded an inhibition constant (Ki) of over 10000 nM.
`CNCCCN1c2ccccc2CCc2ccccc21` [Desmethylimipramine]: the Ki in assay [2] stood at 37 nM.
Regarding `COc1ccc(C(CN(C)C)C2(O)CCCCC2)cc1` (stereo unspecified) [NSC_62923], the inhibitory constant (Ki) in assay [1], in assay [2] and in assay [3] was over 10000 nM each time.
With `CC(O)c1nn(CCCN2CCN(c3ccc(Cl)cc3)CC2)c(=O)n1CCOc1ccccc1` (stereo unspecified) [NSC_127096], the inhibition constant Ki in assay [4] is 612 nM; in assay [1] it was 56 nM; in assay [2] it was over 10000 nM; in assay [3] it was 63 nM.
Consider `Fc1ccc([C@@H]2CCNC[C@H]2COc2ccc3c(c2)OCO3)cc1` [PAROXETINE], for which the inhibition constant (Ki) in assay [1] was over 10000 nM; in assay [2] it was 42 nM.
With `O=c1[nH]n(CCCN2CCN(c3cccc(Cl)c3)CC2)c(=O)n1CCOc1ccccc1` [Triazoledione], the Ki was over 10000 nM in assay [4], 1370 nM in assay [1], over 10000 nM in assay [2] and 1920 nM in assay [3].
Take `CN[C@@H]1CC[C@@H](c2ccc(Cl)c(Cl)c2)c2ccccc21` [[4-(3,4-Dichloro-phenyl)-1,2,3,4-tetrahydro-naphthalen-1-yl]-methyl-amine]: the Ki in assay [1] was 3660 nM; in assay [2], 232 nM.
Take `Clc1cccc(N2CCNCC2)c1` [mCPP]: the Ki came out at 218 nM in assay [4], 16 nM in assay [1], 4700 nM in assay [2] and 112 nM in assay [3].

(Values after BindingDB's records for PubMed 9400006 (Emory University, 1997).)
